In US3992391A, “1,3-Disubstituted thiourea compounds and preparation thereof” (priority 1972, dated 1976):

Experiments:
[1] = Effect on tissue-toxic hypoxia (survival time after KCN i.p.), life-prolonging rate (1); type: in vivo, male mice (dd-strain); settings: Mus musculus, po, 100 mg/kg oral, 1 hour before KCN 10 mg/kg i.p.; untreated group 140 seconds; read-out: Life-prolonging rate (1): increase percent of survival time
[2] = Effect on hypotonic hypoxia (survival time in nitrogen gas containing 1.5 % oxygen), life-prolonging rate (2); type: in vivo, male mice (dd-strain); settings: Mus musculus, po, 100 mg/kg oral, 1 hour before 1.5 % oxygen in nitrogen; untreated group 8 minutes; read-out: Life-prolonging rate (2): increase percent of survival time
Description: b. Effect on hyptonic hypoxia
To male mice (dd-strain) weighting 15 to 22 g were administered orally the present compounds in the dosage of 100 mg/kg, and after one hour, the mice were taken to a closed room, air in which was substituted with nitrogen gas containing 1.5 % oxygen by ventilating the nitrogen gas for 2 minutes. As sending a mixed gas into the room, the time for death was measured. The increase percent of survival time to the average survival time (8 minutes) of the group, to which the present compounds were not administered, is shown in Table II as life-prolonging rate (2).

Structure (SMILES) | ILS at 100 mg/kg [1] [%] | ILS at 100 mg/kg [2] [%]
CN(C)CCCNC(=S)Nc1cccnc1 | 35 | 10
S=C(NNc1ccccc1)Nc1cccnc1 | 125 | 108
OCCCNC(=S)Nc1cccnc1 | 115 | 100
S=C(NCCSCc1ccccc1)Nc1ccccn1 | 86 | 65
CN(C)CCNC(=S)Nc1cccnc1 | 61 | 46
S=C(NN=Cc1ccccn1)Nc1cccnc1 | 92 | 81
CN(C)NC(=S)Nc1cccnc1 | 81 | 63
CCN(CC)CCCNC(=S)Nc1cccnc1 | 28 | 11
CN(Cc1ccccc1)NC(=S)Nc1ccncc1 | 156 | 58
O=C(O)CCCNC(=S)Nc1ccccn1 | 72 | 53
COCCCNC(=S)Nc1cccnc1 | 35 | 25
CC(C)(CO)NC(=S)Nc1cccnc1 | 67 | 50
CCN(CC)CCNC(=S)Nc1ccccn1 | 20 | 16
O=C(O)CCCNC(=S)Nc1cccnc1 | 127 | 78
CN(C)CCCNC(=S)Nc1ccncc1 | 37 | 21
S=C(NCCSSCCNC(=S)Nc1cccnc1)Nc1cccnc1 | 30 | 5
CCN(CC)CCNC(=S)Nc1cccnc1 | 89 | 40
S=C(Nc1cccnc1)NN1CCN(Cc2ccccc2)CC1 | 124 | 80
OCC(CO)(CO)NC(=S)Nc1cccnc1 | 61 | 59
S=C(NN=Cc1cccnc1)Nc1cccnc1 | 135 | 114
CC(O)CNC(=S)Nc1cccnc1 (stereo not shown) | 75 | 60
S=C(NCCSCc1ccccc1)Nc1cccnc1 | 64 | 55
OCCNC(=S)Nc1ccncc1 | 242 | 158
